SMILES strings stand for the structures. pIC50, pKd, pKi: −log10 of the molar value. Read-outs that look alike come from different tables or passages of the source.

The target of experiment [1] is OachGOBP1. As to the kind of experiment: Fluorescence competitive binding assay (1-NPN displacement), OachGOBP1. Also on record: species or system Orthaga achatina. Conditions: 2 µM protein and 2 µM 1-NPN in 50 mM Tris HCl; for pKi: Ki = [IC50]/(1 + [1-NPN]/K1-NPN), read-out: GOBP1 Ki; for pIC50: competitive ligand replacing 50% 1-NPN, read-out: GOBP1 IC50. How it is done: (§1) A fluorescence competition binding assay was used to test the binding properties of GOBPs to 22 plant volatiles of camphor [22, 23] and 4 sex pheromones of O. achatina. The fluorescence competitive binding assay was conducted on an F-7000 fluorescence spectrophotometer with a 1 cm light path quartz cuvette and 10 nm slits for excitation and emission. The excitation wavelength was 337 nm, and the emission spectrum was recorded between 380 and 460 nm. Firstly, the binding characteristics of 1-NPN to protein were detected. We dissolved 2 µM protein in 50 mM Tris HCl (pH = 7.4), then gradually added 1 mM 1-NPN to make its concentration reach 2, 4, 6, 8, 10, 12, 14, 16 and 20 µM, recorded the fluorescence value, and then calculated the binding constant between 1-NPN and the recombinant protein using the Scatchard equation.
When studying the binding constant between odorant and recombinant protein, 1-NPN was used as a fluorescence reporter. We dissolved 2 µM protein and 2 µM 1-NPN in 50 mM Tris HCl, and then gradually added the ligand. […] In order to determine the binding concentration of protein, the free radical concentration was plotted with the fluorescence intensity of the maximum emission spectrum. It was assumed that the protein activity was 100% and the binding ratio of protein to ligand was 1:1 in the saturated state. The curve was linearized by the Scatchard method. […] The calculation formula was: Ki = [IC50]/(1 + [1-NPN]/K1-NPN), where [1-NPN] is the concentration of unbound 1-NPN and K1-NPN is the dissociation concentration of protein/1-NPN complex.

Experiment [2] concerns the target T1, OachGOBP2 (Orthaga achatina, UniProt H6UEU3). As to the kind of experiment: Fluorescence competitive binding assay (1-NPN displacement), OachGOBP2. The settings on record: for pKi: Ki = [IC50]/(1 + [1-NPN]/K1-NPN), read-out: GOBP2 Ki; for binding to GOBP2 (in words): fluorescence competitive binding. On the procedure: as §1
When studying the binding constant between odorant and recombinant protein, 1-NPN was used as a fluorescence reporter. We dissolved 2 µM protein and 2 µM 1-NPN in 50 mM Tris HCl, and then gradually added the ligand. All the ligands were diluted in methanol (AR, content greater than 99.5%). The concentration of pheromone component was 0.5–10 µM and the concentration of plant volatile was 1–32 µM. In order to determine the binding concentration of protein, the free radical concentration was plotted with the fluorescence intensity of the maximum emission spectrum. It was assumed that the protein activity was 100% and the binding ratio of protein to ligand was 1:1 in the saturated state. The curve was linearized by the Scatchard method. Then, the concentration of competitive binding ligand was calculated according to the IC50 value (the concentration when competitive ligand can replace 50% 1-NPN). The calculation formula was: Ki = [IC50]/(1 + [1-NPN]/K1-NPN), where [1-NPN] is the concentration of unbound 1-NPN and K1-NPN is the dissociation concentration of protein/1-NPN complex.

Experiment [3] concerns the target OachGOBP1. As to the kind of experiment: Binding of fluorescent probe 1-NPN to OachGOBP1 (Scatchard). Also noted: species or system Orthaga achatina. The settings on record: 2 µM protein in 50 mM Tris HCl pH 7.4, Scatchard; read-out: dissociation constant (K1-NPN) to OachGOBP1. How it is done: as §1
The target in experiment [4] is T1, OachGOBP2. As to the kind of experiment: Binding of fluorescent probe 1-NPN to OachGOBP2 (Scatchard). The settings on record: 2 µM protein in 50 mM Tris HCl pH 7.4, Scatchard; read-out: dissociation constant (K1-NPN) to OachGOBP2. On the procedure:
as §1

Where [5] appears, read: 2 µM protein and 2 µM 1-NPN in 50 mM Tris HCl.
Where [6] appears, read: competitive ligand replacing 50% 1-NPN, 2 µM protein and 2 µM 1-NPN in 50 mM Tris HCl, read-out: GOBP2 IC50.

T1 sequence (H6UEU3 entry or part of it): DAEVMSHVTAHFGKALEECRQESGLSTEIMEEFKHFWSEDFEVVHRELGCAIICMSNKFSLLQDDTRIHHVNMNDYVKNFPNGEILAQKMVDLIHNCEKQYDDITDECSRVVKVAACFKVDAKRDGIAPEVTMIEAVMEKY

In the case of `CCCCCCO` [1-Hexanol], the negative-log Ki (pKi) at OachGOBP1 [1] and at OachGOBP2 [2] (setting [5]) was below 4.52 throughout. Besides, the pIC50 at OachGOBP1 [1] and at OachGOBP2 [2] (setting [6]) was below 4.49 each time.

Take `c1ccc(Nc2cccc3ccccc23)cc1` [1-NPN]: the figures for the pKd on OachGOBP1 [3] and at OachGOBP2 [4] were 5.00 and 5.31, respectively.

`C=C1C2CCC(C2)C1(C)C` (stereo not shown) [Camphene]: the pKi at OachGOBP1 [1] and at OachGOBP2 [2] (setting [5]) was below 4.52 each time. Further, the negative logarithm of the IC50 (pIC50) at OachGOBP1 [1] and on OachGOBP2 [2] (setting [6]) was below 4.49 each time. The “binding to GOBP2 (in words)” value at OachGOBP2 [2] is reported as “did not bind”.

Take `CC12CCC(CC1=O)C2(C)C` (stereo not shown) [Camphor]: the negative-log Ki (pKi) at OachGOBP1 [1] is below 4.52; at OachGOBP2 [2] (setting [5]) it was 4.76. In addition, the negative logarithm of the IC50 (pIC50) was below 4.49 on OachGOBP1 [1] and 4.68 on OachGOBP2 [2] (setting [6]).

As to `O=C/C=C/c1ccccc1` [Cinnamaldehyde], at OachGOBP1 [1], the pKi is below 4.52 and the pIC50 is below 4.49. On OachGOBP2 [2], this compound showed a pIC50 below 4.49.

Consider `CCC/C=C/C=O` [E2-Hexenal], for which the pKi on OachGOBP1 [1] and at OachGOBP2 [2] (setting [5]) was below 4.52 in each case. The pIC50 on OachGOBP1 [1] and on OachGOBP2 [2] (setting [6]) was below 4.49 in each case.

Consider `CC12CCC(CC1)C(C)(C)O2` [Eucalyptol], for which the pKi on OachGOBP1 [1] and at OachGOBP2 [2] (setting [5]) was below 4.52 in each case. For the same compound, the pIC50 at OachGOBP1 [1] and at OachGOBP2 [2] (setting [6]) was below 4.49 in each case.

`CC(C)=CCC/C(C)=C/CC/C(C)=C/CO` [Farnesol]: the pKi on OachGOBP1 [1] is 5.02; at OachGOBP2 [2] (setting [5]), 5.13. Moreover, the values for the pIC50 at OachGOBP1 [1] and on OachGOBP2 [2] (setting [6]) were 4.96 and 5.06, respectively.

`CC(C)=CCC/C(C)=C/CO` [Geraniol]: on OachGOBP1 [1], the negative-log Ki (pKi) is below 4.52 and the pIC50 is below 4.49. The same compound gave a pIC50 at OachGOBP2 [2] below 4.49.

For `O=CCCCC=O` [Glutaraldehyde], on OachGOBP1 [1], the pKi was below 4.52 and the pIC50 was below 4.49. Further, the pIC50 on OachGOBP2 [2] is below 4.49.

Consider `CCCCCCOC(C)=O` [Hexyl acetate], for which the pKi at OachGOBP1 [1] and on OachGOBP2 [2] (setting [5]) was below 4.52 throughout. Further, the pIC50 at OachGOBP1 [1] and at OachGOBP2 [2] (setting [6]) was below 4.49 in each case.

Turning to `C=C(C)[C@H]1CC=C(C)CC1` [Limonene], the negative-log Ki (pKi) at OachGOBP1 [1] and at OachGOBP2 [2] (setting [5]) was below 4.52 each time. The pIC50 on OachGOBP1 [1] and at OachGOBP2 [2] (setting [6]) was below 4.49 throughout.

With `C=CC(C)(O)CCC=C(C)C` (stereo not shown) [Linalool], on OachGOBP1 [1], the pKi is below 4.52 and the pIC50 was below 4.49. On OachGOBP2 [2], the pIC50 is 4.86.

Consider `C=CC(C)=CCC=C(C)C` [Ocimene], for which the pKi at OachGOBP1 [1] and on OachGOBP2 [2] (setting [5]) was below 4.52 throughout. The pIC50 on OachGOBP1 [1] and at OachGOBP2 [2] (setting [6]) was below 4.49 in each case.

In the case of `CC/C=C\C/C=C\C/C=C\C/C=C\C/C=C\CCCCCCC` [Z3, Z6, Z9,Z12,Z15–23: H], the pKi on OachGOBP1 [1] and on OachGOBP2 [2] (setting [5]) was below 4.52 each time. Moreover, the negative-log IC50 (pIC50) at OachGOBP1 [1] and on OachGOBP2 [2] (setting [6]) was below 4.49 throughout.

`CC/C=C\CCO` [Z3-Hexen-1-ol]: the pKi on OachGOBP1 [1] is below 4.52; on OachGOBP2 [2] (setting [5]), 4.74. Moreover, the values for the negative-log IC50 (pIC50) at OachGOBP1 [1] and on OachGOBP2 [2] (setting [6]) were below 4.49 and 4.67, respectively.

As to `CC/C=C\CC=O` [Z3-Hexenal], the negative logarithm of the Ki (pKi) on OachGOBP1 [1] and at OachGOBP2 [2] (setting [5]) was below 4.52 each time. Also, the pIC50 on OachGOBP1 [1] and at OachGOBP2 [2] (setting [6]) was below 4.49 each time. In addition, the “binding to GOBP2 (in words)” value on OachGOBP2 [2] is recorded as “did not bind”.

Consider `CC/C=C\CCOC(C)=O` [Z3-Hexenyl acetate], for which the pKi on OachGOBP1 [1] was below 4.52; at OachGOBP2 [2] (setting [5]), 4.84. For the same compound, the results for the pIC50 at OachGOBP1 [1] and on OachGOBP2 [2] (setting [6]) were below 4.49 and 4.78, respectively.

Turning to `CCCC/C=C\CCCCCCCCCC=O` [Z11-16: Ald], at OachGOBP1 [1], the negative logarithm of the Ki (pKi) was below 4.52 and the pIC50 is below 4.49. Also, the pIC50 at OachGOBP2 [2] (setting [6]) was below 4.49.

Turning to `CCCC/C=C\CCCCCCCCCCOC(C)=O` [Z11-16: OAc], the pKi is below 4.52 at OachGOBP1 [1] and 5.55 at OachGOBP2 [2] (setting [5]). Moreover, the pIC50 was below 4.49 at OachGOBP1 [1] and 5.48 on OachGOBP2 [2] (setting [6]). In addition, on OachGOBP2 [2] (class by Ki, sex pheromones), the “binding capacity class to OachGOBP2 (sex pheromones)” value is recorded as “moderate (2 μM < Ki < 5 μM indicates moderate binding affinity)”.

Take `CCCC/C=C\CCCCCCCCCCO` [Z11-16: OH]: the pKi is 5.80 at OachGOBP1 [1] and 5.48 at OachGOBP2 [2] (setting [5]). Besides, the pIC50 at OachGOBP1 [1] is 5.75; at OachGOBP2 [2] (setting [6]) it was 5.41.

For the compound `C=C/C(C)=C/C/C=C(\C)CCC=C(C)C` [α-Farnesene], the pKi on OachGOBP1 [1] is below 4.52; at OachGOBP2 [2] (setting [5]) it was 4.87. The pIC50 at OachGOBP1 [1] is below 4.49; at OachGOBP2 [2] (setting [6]) it was 4.80.

As to `CC(=O)/C=C/C1C(C)=CCCC1(C)C` (stereo not drawn) [α-Ionone], the pKi on OachGOBP1 [1] is below 4.52. The pIC50 at OachGOBP1 [1] and at OachGOBP2 [2] was below 4.49 throughout.

As for `CC1=CC[C@H](C(C)C)C=C1` [α-Phellandrene], at OachGOBP1 [1], the pKi was below 4.52 and the pIC50 was below 4.49. The compound also showed a pIC50 at OachGOBP2 [2] of 4.99.

In the case of `C=CC(=C)CC/C=C(\C)CCC=C(C)C` [β-Farnesene], the pKi at OachGOBP1 [1] and on OachGOBP2 [2] (setting [5]) was below 4.52 each time. Also, the pIC50 on OachGOBP1 [1] and at OachGOBP2 [2] (setting [6]) was below 4.49 in each case.

Take `CC(=O)/C=C/C1=C(C)CCCC1(C)C` [β-Ionone]: at OachGOBP1 [1], the pKi is below 4.52 and the pIC50 was below 4.49. Besides, at OachGOBP2 [2], the negative-log IC50 (pIC50) was 4.75.

Turning to `C=C1CCC2CC1C2(C)C` (stereo not drawn) [β-Pinene], at OachGOBP1 [1], the pKi is below 4.52 and the pIC50 was below 4.49. The compound also gave a negative logarithm of the IC50 (pIC50) on OachGOBP2 [2] below 4.49.

(Values after article PMC10051560, “Identification and Functional Characterization of General Odorant Binding Proteins in Orthaga achatina” (Insects, 2023).)
